We go through one compound from patent US11186817B2, “Chemically defined cell culture media additive” (IUCF-HYU (INDUSTRY-UNIVERSITY COOPERATION FOUNDATION …, priority 2014, dated 2021).

The experiment concerns CHO DG44 cell line. As to the kind of experiment: Cell line growth in HY-CDM media supplemented with DHF. Type of experiment: cell-based, Chinese hamster. The source says: 1. Cell line and media: CHO DG44 cell line was used as a DHFR-deficient cell line. The cell line was passaged 80 times or more and suspension adapted in HY-CDM (in-house) media as chemically defined media. The suspension-adapted cell line was used to evaluate the influence of tetrahydrofolate (THF) and dihydrofolate (DHF) and the growth characteristics in commercial chemically defined media. The HY-CDM media were composed of chemically defined components only. Each HY-CDM medium further included a growth factor. HY-CDM media used in Examples 1, 3, and 4 were free of an animal derived lipid mixture, and HY-CDM media used in Example 2 were supplemented with cod liver oil.
2. Cell suspension culture: The cell line was inoculated at a density of 4×10^5 cells/ml and cultured in an Erlenmeyer flask with a 30 ml/125 ml working volume on an orbital shaker at 120 rpm under humidified conditions at 37° C. and 5% CO2. Before inoculation, the cells were centrifuged at 1,000 rpm (×162 g) for 5 min, the supernatant was discarded, and the remaining cells were dispersed into single cells in the heated medium. The cells were passaged three times to minimize the influence of the remaining medium under the experimental conditions. The subcultured cells were evaluated.
3. Density of live cells: The density of live cells was analyzed using a hemocytometer (Neubauer improved bright-line, Marienfeld, Germany), an inverted microscope (CK30, Olympus, Japan), and trypan blue dye exclusion.
DHF was used at the same concentrations as THF. The addition of DHF at concentrations of […] improved cell growth by 11% and 24%, respectively (Table 8), which were about 7 times lower than the addition of THF.

Consider `Nc1nc(=O)c2c([nH]1)NCC(CNc1ccc(C(=O)N[C@@H](CCC(=O)O)C(=O)O)cc1)=N2` [DHF, dihydrofolate], for which the “Increment compared to control” value runs as follows: (DHF 1.8 μM) 1.5%; (DHF 3.6 μM) 11.1%; (DHF 35.9 μM) 24.1%. For the same compound, the “Maximum cell concentration, Average” value reads like this: (DHF 1.8 μM) 18.0 ×10^5 cells/ml; (DHF 3.6 μM) 19.7 ×10^5 cells/ml; (DHF 35.9 μM) 22.0 ×10^5 cells/ml. Moreover, under “DHF 3.6 μM and 35.9 μM”, the “Cell growth improvement lower than with the addition of THF” value is listed as “about 7 times”. The Improved cell growth was determined as 11% (DHF 3.6 M) and 24% (DHF 35.9 M).
